Laboratory results taken from patent US8093374B2, “Bismuth hyaluronate, the preparation method and the use thereof” (priority 2005, dated 2012).
Marks after values point to notes of the source that are not given here.

Columns and labels:
[1] = tested on: acetic acid-induced gastric ulcer; assay: Protecting effect on acetic acid-induced gastric ulcer in rats; type: in vivo, Female Wistar rats; details: for Area of Ulcer (x ± s): intragastric once daily for 10 consecutive days, negative control 15.71 ± 2.20; for Inhibition of Ulcer: intragastric once daily for 10 days, percentage of the control
From the text: Female Wistar rats weighing 150 to 200 g were used. Following the method described in literatures ((1) Pharmacological Test Methodology, 2nd edition, Beijing, People's Health Press, 1991, 1158-1160; (2) Guidelines for preclinical studies of new drugs (western medicines) (pharmacy, pharmacology, toxicology), 1993, 88-89), a model of acetic acid-induced gastric ulcer was made. Specifically, in an area of 5 mm in diameter on the serosal side of the body of stomach in rats under anesthesia with ether, gastric ulcer was induced by treatment with 0.2 ml of glacial acetic acid for 1.5 min. On the next day following the operation, animals were randomly divided into 6 groups and started on oral administration, with distilled water as negative control and colloidal bismuth pectin as positive control. The test samples are the bismuth hyaluronate of the present invention prepared according to the Preparation Example 1 (having a glucuronate content of 27.9% and a bismuth content of 30.7%) and the starting material sodium hyaluronate (having an average molecular weight of 9.1×10^5 and a glucuronate content of 38.9%). The rats received intragastric administration once daily in a volume of about 10 ml for 10 consecutive days. Then the animals were sacrificed, and their stomachs were removed and fixed in a formaldehyde solution. After dissection, the size of the gastric ulcer was determined by measuring under microscope the maximum longitudinal diameter (d1) and the maximum transverse diameter (d2) through the center of the ulcer, and calculating the area of ulcer using the following equation: S=π×(d1/2)×(d2/2). The inhibition of ulcer was expressed as the percentage of the control.

[2] = tested on: hydrochloric acid-ethanol-induced injury to gastric mucosa; assay: Prevention and treatment of hydrochloric acid-ethanol-induced injury to gastric mucosa in rats; type: in vivo, Female Wistar rats; details: for Length of injury (x ± s): sacrificed 1 h after, negative control 97.50 ± 13.28
Experimental: Female Wistar rats weighing 150 to 200 g were used. Following the method described in the literature (Methodology of pharmacological studies of Chinese medicines, Beijing, People's Health Press, 1994: 441). The rats were fasted, with access to water, for 24 h. Then the rats were randomly divided (see above) and received intragastric administration. 30 min after the administration, each rat was drenched with hydrochloric acid-ethanol (a mixture of 50 ml of absolute ethanol and 1 ml of concentrated hydrochloric acid) at a dose of 0.5 ml/100 g of body weight. 1 h after the treatment with acidified ethanol, the animals were sacrificed, and their stomachs were removed and fixed in a formaldehyde solution. The stomach was cut open along the greater curvature and washed for examination of the injury to the gastric mucous membrane.

[3] = 150 mg/kg intragastric 30 min before hydrochloric acid-ethanol
[4] = 50 mg/kg intragastric 30 min before hydrochloric acid-ethanol
[5] = 100 mg/kg intragastric 30 min before hydrochloric acid-ethanol

Substance | Area of Ulcer (x ± s) ([1]; 150 mg/kg) | Inhibition of Ulcer ([1]; 150 mg/kg) | Inhibition of Ulcer [2, 3] | Length of injury (x ± s) [2, 3] | Area of Ulcer (x ± s) ([1]; 50 mg/kg) | Inhibition of Ulcer ([1]; 50 mg/kg) | Area of Ulcer (x ± s) ([1]; 100 mg/kg) | Inhibition of Ulcer ([1]; 100 mg/kg) | inhibition of acetic acid-induced gastric ulcer (in words) ([1]; rats, summary of Table 2) | inhibition of acetic acid-induced gastric ulcer compared with colloidal bismuth pectin (in words) ([1]; rats, versus positive control) | Inhibition of Ulcer [2, 4] | Length of injury (x ± s) [2, 4] | Inhibition of Ulcer [2, 5] | Length of injury (x ± s) [2, 5] | inhibition of acidified ethanol-induced gastric ulcer (in words) ([2]; rats, summary of Table 3) | inhibition of acidified ethanol-induced gastric ulcer compared with colloidal bismuth pectin (in words) ([2]; rats, versus positive control)
sodium hyaluronate [reference compound] | 10.25 ± 2.29 mm^2 | 34.75% | 48.16% | 50.54 ± 11.98 mm |  |  |  |  |  |  |  |  |  |  |  | 
bismuth hyaluronate | 4.05 ± 1.62***^ΔΔ mm^2 | 74.22% | 92.70% | 7.11 ± 2.13***^ΔΔΔ mm | 5.92 ± 2.27** mm^2 | 62.32% | 4.98 ± 1.15***^Δ mm^2 | 68.30% | statistically significant inhibition | significantly higher than the positive control | 72.78% | 26.54 ± 7.88***^ΔΔ mm | 92.93% | 6.89 ± 1.86***^ΔΔΔ mm | statistically significant inhibition | significantly higher than the positive control
colloidal bismuth pectin [reference compound] | 7.15 ± 2.03* mm^2 | 54.48% | 55.24% | 43.64 ± 9.55 mm |  |  |  |  |  |  |  |  |  |  |  | 
